#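 Compound exposure: 48 hours, 5 concentrations, 96-well plates. Here, GI50 denotes the concentration required for 50% inhibition of growth.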 Activity calls are given as the source filed them. Rule as the data show it: active = GI50 up to about 1.1 µM and inactive = higher.
# Experiments:
# Experiment in all cases: growth of human tumour cells (NCI), 48 h
# [1] = tested on: SK-MEL-28
# [2] = tested on: UACC-62
# [3] = tested on: TK-10
# [4] = tested on: NCI-H460
# [5] = tested on: OVCAR-3
# [6] = tested on: K562
# [7] = tested on: COLO 205
# [8] = tested on: SR
# [9] = tested on: NCI-H522
# [10] = tested on: SK-MEL-5
# [11] = tested on: LOX IMVI
# [12] = tested on: 786-0
# [13] = tested on: M14
# [14] = tested on: HCT-15
# [15] = tested on: HCC 2998
# [16] = tested on: SK-OV-3
# [17] = tested on: UACC-257
# [18] = tested on: RPMI-8226
# [19] = tested on: PC-3
# [20] = tested on: NCI/ADR-RES
SMILES,GI50 [1],GI50 [2],GI50 [3],GI50 [4],GI50 [5],GI50 [6],GI50 [7],GI50 [8],GI50 [9],GI50 [10],GI50 [11],GI50 [12],GI50 [13],GI50 [14] [µM],GI50 [15],GI50 [16],GI50 [17],GI50 [18],GI50 [19],GI50 [20]
O=C(CCc1nnc2s/c(=C\c3ccc4c(c3)OCO4)c(=O)n12)Nc1cc(Cl)ccc1Cl,> 100 µM (inactive),> 100 µM (inactive),> 100 µM (inactive),> 100 µM (inactive),> 100 µM (inactive),> 100 µM (inactive),> 74.1 µM (inactive),> 100 µM (inactive),> 100 µM (inactive),> 100 µM (inactive),> 100 µM (inactive),> 100 µM (inactive),> 100 µM (inactive),> 39.8,> 100 µM (inactive),> 100 µM (inactive),> 100 µM (inactive),> 78.5 µM (inactive),–,–
C(=C\c1ccccc1)/Cn1nc(-c2ccccc2)nc1-c1cnccn1,> 100 µM (inactive),> 100 µM (inactive),> 100 µM (inactive),> 100 µM (inactive),> 100 µM (inactive),> 100 µM (inactive),> 100 µM (inactive),> 100 µM (inactive),> 100 µM (inactive),29.5 µM (inactive),> 100 µM (inactive),> 100 µM (inactive),> 100 µM (inactive),> 100,> 100 µM (inactive),66.7 µM (inactive),> 100 µM (inactive),> 100 µM (inactive),> 100 µM (inactive),–
CCOCN/C(N)=N\C#N,> 100 µM (inactive),> 100 µM (inactive),> 100 µM (inactive),> 100 µM (inactive),> 100 µM (inactive),66.1 µM (inactive),> 100 µM (inactive),36.6 µM (inactive),> 100 µM (inactive),> 100 µM (inactive),12.1 µM (inactive),23.9 µM (inactive),> 100 µM (inactive),20.5,> 100 µM (inactive),> 100 µM (inactive),> 100 µM (inactive),> 100 µM (inactive),–,–
COc1cc(OC)c2c(=O)c(OC)c(-c3ccc4c(c3)OCO4)oc2c1,> 100 µM (inactive),26 µM (inactive),45 µM (inactive),> 100 µM (inactive),> 100 µM (inactive),> 100 µM (inactive),> 100 µM (inactive),–,38.3 µM (inactive),47.3 µM (inactive),15.8 µM (inactive),36 µM (inactive),> 100 µM (inactive),> 100,> 100 µM (inactive),22.8 µM (inactive),> 100 µM (inactive),–,84.7 µM (inactive),46.9 µM (inactive)
CC(=O)NC(C)(C)C1CCC(C)=C(c2ccccc2)C1 (centres undefined),> 100 µM (inactive),> 100 µM (inactive),> 100 µM (inactive),> 100 µM (inactive),> 100 µM (inactive),42 µM (inactive),> 100 µM (inactive),> 100 µM (inactive),88.7 µM (inactive),> 100 µM (inactive),> 100 µM (inactive),> 100 µM (inactive),> 100 µM (inactive),74,> 100 µM (inactive),> 100 µM (inactive),> 100 µM (inactive),–,> 100 µM (inactive),–
O=C(N/N=C(COc1ccc([N+](=O)[O-])cc1)\N=C\c1ccncc1)c1ccncc1,> 100 µM (inactive),> 100 µM (inactive),> 100 µM (inactive),> 100 µM (inactive),> 100 µM (inactive),> 100 µM (inactive),> 100 µM (inactive),–,> 100 µM (inactive),–,0.564 µM (active),> 100 µM (inactive),> 100 µM (inactive),> 100,> 100 µM (inactive),> 100 µM (inactive),> 100 µM (inactive),> 100 µM (inactive),> 100 µM (inactive),> 100 µM (inactive)
O=C1C(Cl)C(c2ccc(Cl)cc2)N1n1cnc2ccccc2c1=O (centres undefined),> 100 µM (inactive),87.1 µM (inactive),> 100 µM (inactive),> 100 µM (inactive),> 100 µM (inactive),35.6 µM (inactive),> 100 µM (inactive),52.7 µM (inactive),55.2 µM (inactive),> 100 µM (inactive),70.5 µM (inactive),> 100 µM (inactive),> 100 µM (inactive),92,> 100 µM (inactive),33.8 µM (inactive),> 100 µM (inactive),40.6 µM (inactive),–,–
Cn1cc2ccccc2c1-c1nc(N)nc(F)n1,> 100 µM (inactive),–,> 100 µM (inactive),> 100 µM (inactive),> 100 µM (inactive),> 100 µM (inactive),> 100 µM (inactive),> 100 µM (inactive),> 100 µM (inactive),> 100 µM (inactive),> 100 µM (inactive),> 100 µM (inactive),> 100 µM (inactive),> 100,> 100 µM (inactive),> 100 µM (inactive),> 100 µM (inactive),> 100 µM (inactive),–,–

# — ChEMBL document CHEMBL1201862, “PubChem BioAssay data set” (2004)
